Results from paper PMC10289957 (Investigational New Drugs, 2023).
Where two headings read alike, the source gives them in different places. Marks after values point to notes of the source that are not given here. Blank lines part the entries; values can stand above or below the compound they belong to.

How the values were obtained:
preclinical models = system: preclinical models; design: method as in PMID 29774094, PMID 33273059; settings: cited from earlier work
[1] = human, in vivo
advanced solid tumors = settings: MK-8353 300−400 mg twice daily, 3/15 patients; cited from earlier work
[2] = system: human cancer xenograft models; settings: various human cancer xenograft models; cited from earlier work
clinical = settings: human, in vivo, Observed median time of maximum plasma concentration, range over dose levels
[3] = system: patients with advanced solid tumors; settings: cited from earlier work
[4] = Plasma pharmacokinetics after oral administration of the combination (noncompartmental); settings: for AUC0−12 / AUC0−last / Cmax / tlast / tmax: plasma; for AUC0−12 / AUC0−last / Cmax: geometric mean (% geometric CV); for tlast / tmax: median (range)
advanced cancers = system: advanced cancers; design: method as in PMID 25385055; settings: selumetinib monotherapy, patients with advanced cancers; cited from earlier work
patients = system: patients; design: method as in PMID 30681641; settings: cited from earlier work
[5] = MK-8353 400 mg twice daily (MTD)
[6] = MK-8353 400 mg twice daily, n = 7
[7] = MK-8353 800 mg twice daily, 6 patients
[8] = cycle 1 Day 1, MK-8353 50 mg + selumetinib 25 mg oral BID
[9] = cycle 1 Day 1, MK-8353 100 mg + selumetinib 50 mg oral BID
[10] = cycle 1 Day 1, MK-8353 150 mg + selumetinib 75 mg oral BID
[11] = cycle 1 Day 4, MK-8353 50 mg + selumetinib 25 mg oral BID
[12] = cycle 1 Day 4, MK-8353 100 mg + selumetinib 50 mg oral BID
[13] = cycle 1 Day 4, MK-8353 150 mg + selumetinib 75 mg oral BID

SMILES: Cc1cccc(CN2C(=O)c3cc(-c4nc(Nc5ccnn5C)ncc4C)cn3C[C@@H]2C)n1 [AZ6197]
- Antitumor activity of ERK inhibitor plus selumetinib versus each agent alone (preclinical models): greater antitumor activity versus each agent alone

SMILES: COC[C@H]1Cn2cc(-c3nc(Nc4ccnn4C)ncc3C)nc2C(=O)N1Cc1ccc(F)c(F)c1 [AZD0364]
- Antitumor activity of ERK inhibitor plus selumetinib versus each agent alone (preclinical models): greater antitumor activity versus each agent alone

SMILES: CS[C@@]1(C(=O)Nc2ccc3[nH]nc(-c4ccc(OC(C)C)nc4)c3c2)CCN(CC(=O)N2CC=C(c3ccc(-c4ncn(C)n4)cc3)CC2)C1 [MK-8353]
- Accumulation at steady state [1]: ≤ 2 fold
- Patients with a partial response (advanced solid tumors): 20%
- Antitumor activity [2]: Antitumor activity of MK-8353 was demonstrated
- tmax (clinical; cycle 1, all dose levels): 1.97 to 2.05 h
- Eye disorders [3, 5]: no eye disorders occurred
- Macular rash [3, 5]: 1 n
- Maculopapular rash [3, 5]: 3 n
- Pruritus [3, 5]: 1 n
- Urticaria [3, 5]: 1 n
- Diarrhea [3, 6]: 2 n
- Dyspepsia [3, 6]: 2 n
- Nausea [3, 6]: 4 n
- Vomiting [3, 6]: 2 n
- Safety and tolerability ([3]; MK-8353 400 mg twice daily): safe and well tolerated
- Blurred vision [3, 7]: 2 n
- Visual impairment [3, 7]: 3 n
- Vitreous floaters [3, 7]: 1 n
- MTD of MK-8353 monotherapy [3]: 400 mg twice daily

- Geometric mean minimum plasma concentration (Ctrough) ([4]; from lowest to highest dose): 8 to 26 nM
- AUC0−12 [4, 8]: 0.161 (52.4) h∙µmol/L
- AUC0−last [4, 8]: 0.144 (47.7) h∙µmol/L
- Cmax [4, 8]: 43.7 nM
- tlast [4, 8]: 8.02 (7.83–8.07) h
- tmax [4, 8]: 1.88 (0.92–2.05) h
- AUC0−12 [4, 9]: 0.344 (73.5)^l h∙µmol/L
- AUC0−last [4, 9]: 0.261 (118.6) h∙µmol/L
- Cmax [4, 9]: 93.5 nM
- tlast [4, 9]: 8.00 (3.92–11.33) h
- tmax [4, 9]: 1.02 (0.88–2.08) h
- AUC0−12 [4, 10]: 0.690 (56.3)^j h∙µmol/L
- AUC0−last [4, 10]: 0.547 (61.3) h∙µmol/L
- Cmax [4, 10]: 158 nM
- tlast [4, 10]: 8.00 (7.83–8.37) h
- tmax [4, 10]: 1.92 (0.83–4.00) h
- AUC0−12 [4, 11]: 0.230 (63.5) h∙µmol/L
- AUC0−last [4, 11]: 0.202 (60.5) h∙µmol/L
- Cmax [4, 11]: 56.3 nM
- tlast [4, 11]: 8.05 (7.97–8.08) h
- tmax [4, 11]: 1.88 (1.87–2.00) h
- AUC0−12 [4, 12]: 0.386 (49.6)^k h∙µmol/L
- AUC0−last [4, 12]: 0.267 (102.1) h∙µmol/L
- Cmax [4, 12]: 72.4 nM
- tlast [4, 12]: 8.00 (5.83–8.33) h
- tmax [4, 12]: 1.96 (0.95–3.97) h
- AUC0−12 [4, 13]: 0.681 (35.7)^k h∙µmol/L
- AUC0−last [4, 13]: 0.486 (87.7)^f h∙µmol/L
- Cmax [4, 13]: 97.7 nM
- tlast [4, 13]: 8.00 (0.00–8.05)^h
- tmax [4, 13]: 1.07 (0.00–5.92)^h
- Accumulation at steady state ([4]; twice daily dosing): ≤ 2 fold
SMILES: O=C(NOCCO)c1cc2[nH]cnc2c(F)c1Nc1ccc(Br)cc1Cl [desmethyl selumetinib]

- Accumulation at steady state [1]: ≤ 2 fold
- Geometric mean minimum plasma concentration (Ctrough) [1]: 0.101−0.456 µmol/L
- Time of Cmax after dosing [1]: ≤ 2 h
- tmax (clinical): 1 to 1.96 h
SMILES: Cn1cnc2c(F)c(Nc3ccc(Br)cc3Cl)c(C(=O)NOCCO)cc21 [selumetinib]
- Objective response rates (advanced cancers): up to 15%
- Rates of treatment-related eye disorders (patients; selumetinib combination therapy with other agents (chemotherapies, targeted therapies)): up to 40%
- Rates of treatment-related eye disorders (patients; selumetinib monotherapy, previous studies): 10−20%
